Experimental data taken from US7384629B2, “Biological control of nematodes with Hirsutella minnesotensis” (Regents of the University of Minnesota, priority 2000, dated 2008).

System: Hirsutella rhossiliensis
Test: Effect of carbon source on growth, sporulation and spore germination
Settings: for Growth mm-in-diam, on agar: carbon source 4 g/liter carbon; for Growth mm-in-diam, on agar / Sporulation 10^3/cm^2, on agar / growth in liquid culture (visual rating): 5 weeks; for Sporulation 10^3/cm^2, on agar / Spore germination %, on agar / growth in liquid culture (visual rating): carbon source; for Spore germination %, on agar: after incubation for 24 hr

**Q.** With `O=C(O)CC(O)(CC(=O)O)C(=O)O` [Citric acid] as the molecule, how does the “Growth mm-in-diam, on agar” value (isolate ATCC46487) read?
**A.** 11.3 mm-in-diam

**Q.** And the “Growth mm-in-diam, on agar” value (isolate JA16-1)?
**A.** 0.0 mm-in-diam

**Q.** And the “Growth mm-in-diam, on agar” value (isolate OWVT-1)?
**A.** 9.0 mm-in-diam

**Q.** And the “Sporulation 10^3/cm^2, on agar” value (isolate ATCC46487)?
**A.** 39.5 10^3/cm^2

**Q.** What about the “Spore germination %, on agar” value (isolate ATCC46487) of the same molecule?
**A.** 50.0%

**Q.** And the “Sporulation 10^3/cm^2, on agar” value (isolate JA16-1)?
**A.** 7.4 10^3/cm^2

**Q.** What about the “Spore germination %, on agar” value (isolate JA16-1) of the same molecule?
**A.** 38.9%

**Q.** What about the “Sporulation 10^3/cm^2, on agar” value (isolate OWVT-1) of the same molecule?
**A.** 87.5 10^3/cm^2

**Q.** What about the “Spore germination %, on agar” value (isolate OWVT-1) of the same molecule?
**A.** 52.2%

**Q.** For `OC[C@H]1O[C@H](O[C@H]2O[C@H](CO)[C@@H](O)[C@H](O)[C@H]2O)[C@H](O)[C@@H](O)[C@@H]1O` [D(+) trehalose], which “Growth mm-in-diam, on agar” value (isolate ATCC46487) is on record?
**A.** 36.5 mm-in-diam

**Q.** And the “Growth mm-in-diam, on agar” value (isolate JA16-1)?
**A.** 18.3 mm-in-diam

**Q.** What about the “Growth mm-in-diam, on agar” value (isolate OWVT-1) of the same molecule?
**A.** 30.2 mm-in-diam

**Q.** And the “Sporulation 10^3/cm^2, on agar” value (isolate ATCC46487)?
**A.** 172.6 10^3/cm^2

**Q.** And the “Spore germination %, on agar” value (isolate ATCC46487)?
**A.** 60.0%

**Q.** What about the “Sporulation 10^3/cm^2, on agar” value (isolate JA16-1) of the same molecule?
**A.** 5.2 10^3/cm^2

**Q.** And the “Spore germination %, on agar” value (isolate JA16-1)?
**A.** 68.9%

**Q.** And the “Sporulation 10^3/cm^2, on agar” value (isolate OWVT-1)?
**A.** 49.2 10^3/cm^2

**Q.** And the “Spore germination %, on agar” value (isolate OWVT-1)?
**A.** 62.2%

**Q.** What does the source list for `O=C[C@H](O)[C@@H](O)[C@@H](O)[C@H](O)CO` [D(+)galactose]?
**A.** Growth mm-in-diam, on agar (isolate ATCC46487): 25.0 mm-in-diam; Growth mm-in-diam, on agar (isolate JA16-1): 0.0 mm-in-diam; Growth mm-in-diam, on agar (isolate OWVT-1): 7.0 mm-in-diam; Sporulation 10^3/cm^2, on agar (isolate ATCC46487): 2.8 10^3/cm^2; growth in liquid culture (visual rating) (isolate ATCC46487): I; Spore germination %, on agar (isolate ATCC46487): 62.2%; Sporulation 10^3/cm^2, on agar (isolate JA16-1): 7.4 10^3/cm^2; Spore germination %, on agar (isolate JA16-1): 43.3%; Sporulation 10^3/cm^2, on agar (isolate OWVT-1): 7.7 10^3/cm^2; Spore germination %, on agar (isolate OWVT-1): 43.3%

**Q.** Which results are given for `O=C[C@H](O)[C@@H](O)[C@H](O)CO` [D(+)xylose]?
**A.** Growth mm-in-diam, on agar (isolate ATCC46487): 0.0 mm-in-diam; Growth mm-in-diam, on agar (isolate JA16-1): 0.0 mm-in-diam; Growth mm-in-diam, on agar (isolate OWVT-1): 0.0 mm-in-diam; Sporulation 10^3/cm^2, on agar (isolate ATCC46487): 0.0 10^3/cm^2; Spore germination %, on agar (isolate ATCC46487): 21.1%; Sporulation 10^3/cm^2, on agar (isolate JA16-1): 2.5 10^3/cm^2; Spore germination %, on agar (isolate JA16-1): 24.4%; Sporulation 10^3/cm^2, on agar (isolate OWVT-1): 0.0 10^3/cm^2; Spore germination %, on agar (isolate OWVT-1): 26.7%

**Q.** Which “Growth mm-in-diam, on agar” value (isolate ATCC46487) does the source give for `O=C[C@H](O)[C@H](O)[C@H](O)CO` [D(−) ribose] here?
**A.** 15.5 mm-in-diam

**Q.** What about the “Growth mm-in-diam, on agar” value (isolate JA16-1) of the same molecule?
**A.** 0.0 mm-in-diam

**Q.** What about the “Growth mm-in-diam, on agar” value (isolate OWVT-1) of the same molecule?
**A.** 8.0 mm-in-diam

**Q.** And the “Sporulation 10^3/cm^2, on agar” value (isolate ATCC46487)?
**A.** 61.3 10^3/cm^2

**Q.** What about the “Spore germination %, on agar” value (isolate ATCC46487) of the same molecule?
**A.** 48.9%

**Q.** What about the “Sporulation 10^3/cm^2, on agar” value (isolate JA16-1) of the same molecule?
**A.** 0.0 10^3/cm^2

**Q.** What about the “Spore germination %, on agar” value (isolate JA16-1) of the same molecule?
**A.** 15.5%

**Q.** What about the “Sporulation 10^3/cm^2, on agar” value (isolate OWVT-1) of the same molecule?
**A.** 1.4 10^3/cm^2

**Q.** What about the “Spore germination %, on agar” value (isolate OWVT-1) of the same molecule?
**A.** 45.6%

**Q.** What does the source list for `O=C(CO)[C@@H](O)[C@H](O)[C@H](O)CO` [D(−)fructose]?
**A.** Growth mm-in-diam, on agar (isolate ATCC46487): 16.2 mm-in-diam; Growth mm-in-diam, on agar (isolate JA16-1): 0.0 mm-in-diam; Growth mm-in-diam, on agar (isolate OWVT-1): 8.5 mm-in-diam; Sporulation 10^3/cm^2, on agar (isolate ATCC46487): 50.2 10^3/cm^2; growth in liquid culture (visual rating) (isolate ATCC46487): I; Spore germination %, on agar (isolate ATCC46487): 45.6%; Sporulation 10^3/cm^2, on agar (isolate JA16-1): 0.0 10^3/cm^2; Spore germination %, on agar (isolate JA16-1): 34.4%; Sporulation 10^3/cm^2, on agar (isolate OWVT-1): 36.8 10^3/cm^2; growth in liquid culture (visual rating) (isolate OWVT-1): I; Spore germination %, on agar (isolate OWVT-1): 50.0%

**Q.** What does the source list for `OC[C@H]1O[C@@H](O[C@H]2[C@H](O)[C@@H](O)[C@H](O)O[C@@H]2CO)[C@H](O)[C@@H](O)[C@@H]1O` [D-(+)-cellubiose]?
**A.** Growth mm-in-diam, on agar (isolate ATCC46487): 33.0 mm-in-diam; Growth mm-in-diam, on agar (isolate JA16-1): 10.0 mm-in-diam; Sporulation 10^3/cm^2, on agar (isolate ATCC46487): 13.8 10^3/cm^2; growth in liquid culture (visual rating) (isolate ATCC46487): I; Spore germination %, on agar (isolate ATCC46487): 58.9%; Sporulation 10^3/cm^2, on agar (isolate JA16-1): 88.8 10^3/cm^2; growth in liquid culture (visual rating) (isolate JA16-1): I; Spore germination %, on agar (isolate JA16-1): 52.2%; Sporulation 10^3/cm^2, on agar (isolate OWVT-1): 23.9 10^3/cm^2; growth in liquid culture (visual rating) (isolate OWVT-1): I; Spore germination %, on agar (isolate OWVT-1): 52.2%
